Consider five compounds from ChEMBL document CHEMBL6153048, “Synthesis and pharmacological evaluation of natural product diphyllin derivatives against head and neck squamous cell carcinoma” (Eur J Med Chem, 2025).

What is called inhibition is the drop in the measured response relative to a control, in per cent. In general, IC50 refers to the point on the concentration scale where inhibition reaches its midpoint. A high value points to weaker potency.

Molecules are shown by their SMILES. The source made the active and inactive calls. No cut-off for these calls is given here.

In data set [1] the test system is CAL-27. Description: Antiproliferative activity against human CAL-27 cells assessed as inhibition rate at 0.1 uM incubated for 72 hrs by MTT assay relative to control. The class given is functional.
The nature of data set [2]: Antiproliferative activity against human HN-6 cells assessed as inhibition rate at 0.1 uM incubated for 72 hrs by MTT assay relative to control. The class given is functional. (In general: Tetrazolium dyes change colour on reduction, which living cells bring about.)
A short description of data set [3]: Antiproliferative activity against human WSU HN-30 cells assessed as inhibition rate at 0.1 uM incubated for 72 hrs by MTT assay relative to control. It counts as functional. The note with it: WSU-HN30.
The subject of data set [4] is SCC-9. Kind of data set: Antiproliferative activity against human SCC-9 cells assessed as inhibition rate at 0.1 uM incubated for 72 hrs by MTT assay relative to control. It counts as functional.
In data set [5] the test system is SCC-25. Kind of data set: Antiproliferative activity against human SCC-25 cells assessed as inhibition rate at 0.1 uM incubated for 72 hrs by MTT assay relative to control. The class given is functional.
The nature of data set [6]: Antiproliferative activity against human L02 cells assessed as inhibition rate at 0.1 uM incubated for 72 hrs by MTT assay relative to control. It counts as toxicity, cell-based.
Data set [7] relates to CAL-27. Kind of data set: Cytotoxicity against human CAL-27 cells incubated for 72 hrs by MTT assay. Particulars: CAL-27, 72 h. It counts as functional, cell-based.
The nature of data set [8]: Cytotoxicity against human HN-6 cells incubated for 72 hrs by MTT assay. The note with it: HN-6, 72 h. The class given is functional, cell-based.
Data set [9] in a line: Cytotoxicity against human […] incubated for 72 hrs by MTT assay. The class given is functional, cell-based. Particulars: WSU-HN30, 72 h.
For data set [10], the system named is SCC-9. Description: Cytotoxicity against human SCC-9 cells incubated for 72 hrs by MTT assay. It counts as functional, cell-based. The note with it: SCC-9, 72 h.
The test system of data set [11] is SCC-25. Kind of data set: Cytotoxicity against human SCC-25 cells incubated for 72 hrs by MTT assay. It counts as functional, cell-based. The note with it: SCC-25, 72 h.
Data set [12] can be described thus: Cytotoxicity against human L02 cells incubated for 72 hrs by MTT assay. It counts as toxicity, cell-based.
The subject of data set [13] is CAL-27. Description: Antiproliferative activity against human CAL-27 cells assessed as inhibition of cell communities at 10 uM treated for 11 days by plate clone formation assay. The class given is functional, cell-based. Particulars: time 11.0 day.

Take `COc1cc2c(O[C@@H]3O[C@@H]4CO[C@@H](C5CCCCC5)O[C@H]4[C@H](O)[C@H]3O)c3c(c(-c4ccc5c(c4)OCO5)c2cc1OC)C(=O)OC3`: the inhibition at 0.1 µM with CAL-27 [1] was determined as 50.5%; in data set [2], 62.1%; in data set [3], 40.6%; with SCC-9 [4] it was 46.6%; in the data set with SCC-25 [5], 47.4%. In addition, the inhibition at 72 h, 0.1 µM in data set [6] came to 11.5%. Moreover, the IC50 in the data set on CAL-27 [7] was determined as 0.0116 µM; in data set [8], 0.0148 µM; in data set [9], 0.0352 µM; in the data set on SCC-9 [10] it was 0.0297 µM; in the data set with SCC-25 [11], 0.0152 µM. Further, in data set [12], inhibition was half-maximal at 4.67 µM (IC50 at 72 h).
Turning to `COc1cc2c(OCCOCCOCCN)c3c(c(-c4ccc5c(c4)OCO5)c2cc1OC)C(=O)OC3`, the inhibition at 0.1 µM in the data set on CAL-27 [1] came out at 67.2%; in data set [2], 29.5%; in data set [3] it was 25.2%; in the data set on SCC-9 [4] it was 31.5%; with SCC-25 [5], 51.1%. For the same compound, in [6], the inhibition at 72 h, 0.1 µM worked out at 18.2%. Also, the IC50 with CAL-27 [7] was 0.0406 µM; in data set [8], 0.0946 µM; in [9], 0.123 µM; in the data set on SCC-9 [10], 0.13 µM; in the data set on SCC-25 [11] it was 0.0926 µM. In addition, half-maximal inhibition in data set [12] (IC50 at 72 h) was put at 7.87 µM.
Consider `COc1cc2c(OCCOCCN)c3c(c(-c4ccc5c(c4)OCO5)c2cc1OC)C(=O)OC3`, for which the inhibition at 0.1 µM in the data set with CAL-27 [1] turned out to be 45.6%; in data set [2] it was 50.8%; in [3] it was 34.2%; in the data set with SCC-9 [4] it was 34.9%; in the data set on SCC-25 [5] it was 28.9%. In addition, the inhibition at 72 h, 0.1 µM in data set [6] turned out to be 18.3%. The IC50 was found to be 0.101 µM in the data set on CAL-27 [7]; 0.185 µM in data set [8]; 0.144 µM in data set [9]; 0.135 µM in the data set with SCC-9 [10]; 0.0851 µM in the data set with SCC-25 [11]. The IC50 at 72 h in [12] is over 10 µM.
For the compound `COc1cc2c(O[C@@H]3O[C@@H]4CO[C@@H](c5cccs5)O[C@H]4[C@H](O)[C@H]3O)c3c(c(-c4ccc5c(c4)OCO5)c2cc1OC)C(=O)OC3`, the inhibition at 0.1 µM in the data set on CAL-27 [1] was found to be 50.7%; in [2] it was 56.3%; in data set [3], 41.3%; in the data set with SCC-9 [4], 54%; with SCC-25 [5], 52.5%. Also, in data set [6], the inhibition at 72 h, 0.1 µM came to 7.19%. For the same compound, the IC50 with CAL-27 [7] came to 0.0181 µM; in data set [8], 0.0681 µM; in data set [9], 0.12 µM; with SCC-9 [10], 0.0315 µM; in the data set with SCC-25 [11], 0.00934 µM. The compound also yielded an IC50 at 72 h in data set [12] of over 10 µM.
As for `COc1cc2c(O[C@@H]3O[C@@H]4CO[C@@H](c5ccco5)O[C@H]4[C@H](O)[C@H]3O)c3c(c(-c4ccc5c(c4)OCO5)c2cc1OC)C(=O)OC3`, the inhibition at 0.1 µM was determined as 50.9% with CAL-27 [1]; 58.7% in data set [2]; 45.7% in data set [3]; 52.9% in the data set with SCC-9 [4]; 54.6% in the data set on SCC-25 [5]. Besides, the inhibition at 72 h, 0.1 µM in data set [6] was 5.23%. For the same compound, the IC50 with CAL-27 [7] came out at 0.00547 µM; in data set [8], 0.00858 µM; in data set [9], 0.243 µM; in the data set with SCC-9 [10] it was 0.00497 µM; in the data set on SCC-25 [11], 0.00431 µM. Besides, in [12], the IC50 at 72 h was over 10 µM. Further, the result in the data set with CAL-27 [13] was Active.
